Results as given in patent US11866720B2, “Transgenic or non-transgenic plants with mutated protoporphyrinogen oxidase having increased tolerance to herbicides” (priority 2013, dated 2024).
Several values for one entry are separate records, joined by “and”; a condition that tells them apart may be missing. Equal entries are not always repeated. Where two headings read alike, the source gives them in different places.

Experiments:
[1] = test system: transgenic Arabidopsis thaliana plants expressing wildtype or mutated PPO; experiment: Germination / growth inhibition assay of transgenic Arabidopsis T2 seeds in 48-well plates; conditions: growth inhibition seven to ten days after seeding
[2] = test system: transgenic soybean expressing mutated PPO; assay type: in vivo, Glycine max; conditions: T1 soybean, field; for injury (1-5 point scale): benzoxazin (BAS 850H) 100 g ai/ha, 3 days after treatment; as to injury (1-5 point scale): key: 1: no obvious damage (no phytotoxicity); 2: minor amount of leaf damage, plant will survive; 3: moderate amount of leaf damage, plant will survive; 4: severe amount of leaf damage, plant will survive; 5: no surviving plants - all plants dead/dying
[3] = test system: transgenic soybean expressing mutated PPO; experiment: Soybean segregating T1 individuals, greenhouse spray test (injury 0-9); assay type: in vivo, Glycine max; conditions: benzoxazin 100 g ai/ha, 1 week after treatment
[4] = test system: transgenic soybean expressing mutated PPO; experiment: Soybean T0 cuttings, greenhouse spray test (injury score 0-9, 1 week after treatment); assay type: in vivo, Glycine max; conditions: for Injury score from 0-9: soybean T0 cuttings, 1 week after treatment
From the text: For testing of T0 plants, cuttings can be used. In the case of soybean plants, an optimal shoot for cutting is about 7.5 to 10 cm tall, with at least two nodes present. Each cutting is taken from the original transformant (mother plant) and dipped into rooting hormone powder (indole-3-butyric acid, IBA). The cutting is then placed in oasis wedges inside a bio-dome. Wild type cuttings are also taken simultaneously to serve as controls. The cuttings are kept in the bio-dome for 5-7 days and then transplanted to pots and then acclimated in the growth chamber for two more days. Subsequently, the cuttings are transferred to the greenhouse, acclimated for approximately 4 days, and then subjected to spray tests as indicated. Depending on the species, the plants are kept at 10-25° C. or 20-35° C. The test period extends over 3 weeks. During this time, the plants are tended and their response to the individual treatments is evaluated. Herbicide injury evaluations are taken at 2 and 3 weeks after treatment. Plant injury is rated on a scale of 0% to 100%, 0% being no injury and 100% being complete death.
Soybean cv Jake was transformed as previously described by Siminszky et al., Phytochem Rev. 5:445-458 (2006). After regeneration, transformants were transplanted to soil in small pots, placed in growth chambers (16 hr day/8 hr night; 25° C. day/23° C. night; 65% relative humidity; 130-150 microE m-2 s-1) and subsequently tested for the presence of the T-DNA via Taqman analysis. After a few weeks, healthy, transgenic positive, single copy events were transplanted to larger pots and allowed to grow in the growth chamber. An optimal shoot for cutting was about 3-4 inches tall, with at least two nodes present. Each cutting was taken from the original transformant (mother plant) and dipped into rooting hormone powder (indole-3-butyric acid, IBA). The cutting was then placed in oasis wedges inside a bio-dome. The mother plant was taken to maturity in the greenhouse and harvested for seed. Wild type cuttings were also taken simultaneously to serve as negative controls. The cuttings were kept in the bio-dome for 5-7 days and then transplanted to 3 inch pots and then acclimated in the growth chamber for two more days. […] Herbicide injury evaluations were taken at 2, 7, 14 and 21 days after treatment. Results are shown in Tables 11a-11i, and FIGS. 5, 6, and 7.
The following gives a definition of the injury scores measured above: […]

[5] = SDS-10648 AmtuPPX2L R128A_F420I

C#CCN1C(=O)C(F)(F)Oc2cc(F)c(-n3c(=O)n(C)c(=S)n(C)c3=O)cc21
Relative tolerance rate as compared to a non-transgenic Arabidopsis plant (non-transgenic = 1.0) ([1]; transgenic Arabidopsis AMATU_PPO2_F420I): 367 | Relative tolerance rate as compared to a non-transgenic Arabidopsis plant (non-transgenic = 1.0) ([1]; transgenic Arabidopsis AMATU_PPO2_F420L): 253 | Relative tolerance rate as compared to a non-transgenic Arabidopsis plant (non-transgenic = 1.0) ([1]; transgenic Arabidopsis AMATU_PPO2_F420M): 102 | Relative tolerance rate as compared to a non-transgenic Arabidopsis plant (non-transgenic = 1.0) ([1]; transgenic Arabidopsis AMATU_PPO2_R128A_F420I): 333 | Relative tolerance rate as compared to a non-transgenic Arabidopsis plant (non-transgenic = 1.0) ([1]; transgenic Arabidopsis AMATU_PPO2_R128A_F420L): 333 | Relative tolerance rate as compared to a non-transgenic Arabidopsis plant (non-transgenic = 1.0) ([1]; transgenic Arabidopsis AMATU_PPO2_R128A_F420M): 204 | Relative tolerance rate as compared to a non-transgenic Arabidopsis plant (non-transgenic = 1.0) ([1]; transgenic Arabidopsis AMATU_PPO2_R128L): 23 | Relative tolerance rate as compared to a non-transgenic Arabidopsis plant (non-transgenic = 1.0) ([1]; transgenic Arabidopsis AMATU_PPO2_dG210): 33 | Relative tolerance rate as compared to a non-transgenic Arabidopsis plant (non-transgenic = 1.0) ([1]; transgenic Arabidopsis AMATU_PPO2_dG210_R128L): 153 | Relative tolerance rate as compared to a non-transgenic Arabidopsis plant (non-transgenic = 1.0) ([1]; transgenic Arabidopsis AMATU_PPO2_wt): 13 | Injury rating (1-5 point scale) ([2]; AmtuPPX2L_R128A_F420V (event 10), BAS 850H: treatment 1 100 g ai/ha, treatment 2 0, 7DAT): 3.5 | Injury rating (1-5 point scale) ([2]; AmtuPPX2L_R128A_F420V (event 10), BAS 850H: treatment 1 300 g ai/ha, treatment 2 300 g ai/ha, 14 DAT): 3 | injury (1-5 point scale) [2, 5]: 3 | injury (1-5 point scale) ([2]; SDS-10791 AmtuPPX2L R128A_F420I): 2 | injury (1-5 point scale) ([2]; SDS-11014 AmtuPPX2L R128A_F420I): 2 | injury (1-5 point scale) ([2]; SDS-11034 AmtuPPX2L L397D_F420V): 3 | injury (1-5 point scale) ([2]; SDS-11035 AmtuPPX2L R128A_F420V): 2 | injury (1-5 point scale) ([2]; SDS-11052 AmtuPPX2L R128A_F420M): 3 | Injury rating (1-5 point scale) ([2]; wild type, BAS 850H: treatment 1 100 g ai/ha, treatment 2 0, 7DAT): 5 | Injury rating (1-5 point scale) ([2]; wild type, BAS 850H: treatment 1 300 g ai/ha, treatment 2 300 g ai/ha, 14 DAT): 5 | injury (1-5 point scale) ([2]; wild type): 5 | injury (0-9 point scale) ([3]; SDS10791 AmtuPPX2L R128A_F420I): 3 (2×) and 2 and 4 (3×) and 9 and 5 | injury (0-9 point scale) ([3]; SDS-10642 AmtuPPX2L R128A_F420L): 6 and 5 (5×) and 9 and 4 | injury (0-9 point scale) [3, 5]: 4 (3×) and 9 and 5 (4×) | injury (0-9 point scale) ([3]; SDS-10652 AmtuPPX2L L397D_F420V): 9 (2×) and 4 (6×) | injury (0-9 point scale) ([3]; SDS-10787 AmtuPPX2L R128A_F420L): 4 and 5 (3×) and 9 (2×) and 6 (2×) | injury (0-9 point scale) ([3]; SDS-10985 AmtuPPX2L R128A_F420M): 9 (5×) and 6 (3×) | injury (0-9 point scale) ([3]; SDS-10990 AmtuPPX2L R128A_F420M): 9 (3×) and 7 (2×) and 6 (3×) | injury (0-9 point scale) ([3]; SDS-11034 AmtuPPX2L R128A_F420V): 4 (3×) and 3 (3×) and 2 (2×) | injury (0-9 point scale) ([3]; wild type): 9 (7×) and 8 | injury score 1 WAT ([4]; Soy T0 AmtuPPX2L_R128L_F420V event 1, greenhouse, 25 g ai/ha): 3 | injury score 1 WAT ([4]; Soy T0 AmtuPPX2L_R128L_F420V event 1, greenhouse, 50 g ai/ha): 4 | injury score 1 WAT ([4]; Soy T0 AmtuPPX2L_R128L_F420V event 1, greenhouse, 75 g ai/ha): 5 | injury score 1 WAT ([4]; Soy T0 AmtuPPX2L_R128L_F420V event 2, greenhouse, 25 g ai/ha): 0 | injury score 1 WAT ([4]; Soy T0 AmtuPPX2L_R128L_F420V event 2, greenhouse, 50 g ai/ha): 1 | injury score 1 WAT ([4]; Soy T0 AmtuPPX2L_R128L_F420V event 2, greenhouse, 75 g ai/ha): 3 | Injury score from 0-9 ([4]; AmtuPPX2L (10 events), benzoxazin 12.5 + 1% MSO): 3 | Injury score from 0-9 ([4]; AmtuPPX2L (10 events), benzoxazin 25 + 1% MSO): 5 | Injury score from 0-9 ([4]; AmtuPPX2L_F420L (7 events), benzoxazin 12.5 + 1% MSO): 2 | Injury score from 0-9 ([4]; AmtuPPX2L_F420L (7 events), benzoxazin 25 + 1% MSO): 1 | Injury score from 0-9 ([4]; AmtuPPX2L_F420M (8 events), benzoxazin 25 + 1% MSO): 1 | Injury score from 0-9 ([4]; AmtuPPX2L_F420M (8 events), benzoxazin 50 + 1% MSO): 2 | Injury score from 0-9 ([4]; AmtuPPX2L_R128A_F420I (9 events), benzoxazin 25 + 1% MSO): 2 | Injury score from 0-9 ([4]; AmtuPPX2L_R128A_F420I (9 events), benzoxazin 50 + 1% MSO): 2 | Injury score from 0-9 ([4]; AmtuPPX2L_R128A_F420I (9 events), benzoxazin 75 + 1% MSO): 3 | Injury score from 0-9 ([4]; AmtuPPX2L_R128A_F420L (6 events), benzoxazin 25 + 1% MSO): 0 | Injury score from 0-9 ([4]; AmtuPPX2L_R128A_F420M (7 events), benzoxazin 25 + 1% MSO): 3 | Injury score from 0-9 ([4]; AmtuPPX2L_R128A_F420M (7 events), benzoxazin 50 + 1% MSO): 3 | Injury score from 0-9 ([4]; AmtuPPX2L_R128A_F420M (7 events), benzoxazin 75 + 1% MSO): 4 | Injury score from 0-9 ([4]; AmtuPPX2L_R128A_F420V (14 events), benzoxazin 25 + 1% MSO): 2 | Injury score from 0-9 ([4]; AmtuPPX2L_R128A_F420V (14 events), benzoxazin 50 + 1% MSO): 2 | Injury score from 0-9 ([4]; AmtuPPX2L_R128A_F420V (14 events), benzoxazin 75 + 1% MSO): 3 | Injury score from 0-9 ([4]; AmtuPPX2L_dG210 (13 events), benzoxazin 25 + 1% MSO): 1 | Injury score from 0-9 ([4]; AmtuPPX2L_dG210 (13 events), benzoxazin 50 + 1% MSO): 3 | Injury score from 0-9 ([4]; AmtuPPX2L_dG210_R128L (12 events), benzoxazin 25 + 1% MSO): 2 | Injury score from 0-9 ([4]; AmtuPPX2L_dG210_R128L (12 events), benzoxazin 50 + 1% MSO): 3 | Injury score from 0-9 ([4]; NitabPPX2 (13 events), benzoxazin 12.5 + 1% MSO): 6 | Injury score from 0-9 ([4]; NitabPPX2 (13 events), benzoxazin 25 + 1% MSO): 6 | Injury score from 0-9 ([4]; NitabPPX2_R98A_F392V (9 events), benzoxazin 25 + 1% MSO): 0 | Injury score from 0-9 ([4]; NitabPPX2_R98A_F392V (9 events), benzoxazin 50 + 1% MSO): 0 | Injury score from 0-9 ([4]; wild type Jake variety, benzoxazin 12.5 + 1% MSO): 7 | Injury score from 0-9 ([4]; wild type Jake variety, benzoxazin 25 + 1% MSO): 8 | Injury score from 0-9 ([4]; wild type Jake variety, benzoxazin 50 + 1% MSO): 9 | Injury score from 0-9 ([4]; wild type Jake variety, benzoxazin 75 + 1% MSO): 9
